Results reported in PubChem BioAssay (NCI).
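Five concentrations, 48 hours, 96-well plates. Abbreviation: GI50, concentration required for 50% inhibition of growth. The concentration for full growth arrest is given as TGI.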

Columns and labels:
Experiment in all cases: inhibition of tumour cell growth, NCI panel, 48 h
PC-3 prostate = system: PC-3 prostate
DU-145 prostate = system: DU-145 prostate
HS 578T breast = system: HS 578T breast
T-47D breast = system: T-47D breast
HCC-2998 colon = system: HCC-2998 colon
MCF7 breast = system: MCF7 breast
NCI/ADR-RES ovarian = system: NCI/ADR-RES ovarian
MDA-MB-231 breast = system: MDA-MB-231 breast
DMS 273 small cell lung = system: DMS 273 small cell lung
DMS 114 small cell lung = system: DMS 114 small cell lung

COC(=O)C(C)N1C(=O)c2ccccc2I1OC(C)=O (stereo not drawn) was tested, and the GI50 (PC-3 prostate) was greater than 100 µM, the TGI (PC-3 prostate) was greater than 100 µM and the GI50 (DU-145 prostate) was greater than 100 µM. The TGI (DU-145 prostate) was greater than 100 µM, the GI50 (HS 578T breast) was greater than 100 µM and the TGI (HS 578T breast) was greater than 100 µM. For the same compound, the GI50 (T-47D breast) was 21 µM, the TGI (T-47D breast) was 82.6 µM and the GI50 (HCC-2998 colon) was 17.4 µM. The TGI (HCC-2998 colon) was 38.4 µM, the GI50 (MCF7 breast) was 30.7 µM and the TGI (MCF7 breast) was greater than 100 µM. For the same compound, the GI50 (NCI/ADR-RES ovarian) was greater than 100 µM, the TGI (NCI/ADR-RES ovarian) was greater than 100 µM and the GI50 (MDA-MB-231 breast) was 25.4 µM. It also gave a TGI (MDA-MB-231 breast) greater than 100 µM.

CCOC(=O)C1C(c2cc(OC)c(O)c(OC)c2)c2cc3c(cc2OC1(C)O)OCO3 (stereo not drawn) was tested, and the TGI (DMS 273 small cell lung) was greater than 100 µM.

Compound Cc1cc(NS(=O)(=O)c2ccc(Nc3c4ccccc4nc4c(C(=O)NCCN(C)C)ccc(Cl)c34)cc2)no1 has a TGI (DMS 114 small cell lung) of 13.9 µM.
